How the values were obtained:
[1] = molecular target: T1, TNIK kinase [amino acid sequence (1-367), Invitrogen] (Homo sapiens, UniProt Q9UKE5); assay: TNIK kinase inhibition assay (Z-lyte FRET-peptide); assay type: biochemical; conditions: 0.625 nM TNIK kinase, 2 μM Ser/Thr 7 peptide, 64 μM ATP, one hour at room temperature
T1 construct: purchased Invitrogen

[2] = Metabolic stability in human liver microsomes; assay type: in vitro ADME; conditions: LM Clint (intrinsic clearance); 1 μM test compound, 0.5 mg protein/mL microsome, 37° C., up to 60 min

T1 sequence (Q9UKE5 1-367): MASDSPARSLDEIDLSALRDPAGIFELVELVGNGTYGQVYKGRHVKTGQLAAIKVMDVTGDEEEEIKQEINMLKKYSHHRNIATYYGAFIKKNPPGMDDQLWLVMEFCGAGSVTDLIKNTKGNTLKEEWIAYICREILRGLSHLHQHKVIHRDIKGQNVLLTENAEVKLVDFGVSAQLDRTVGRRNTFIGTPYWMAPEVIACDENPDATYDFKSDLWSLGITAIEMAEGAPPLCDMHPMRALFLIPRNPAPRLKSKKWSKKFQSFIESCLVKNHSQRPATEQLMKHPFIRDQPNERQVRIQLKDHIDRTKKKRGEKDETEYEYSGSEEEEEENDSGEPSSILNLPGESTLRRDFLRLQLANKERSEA

CN1C2CC1CN(c1ccc(NC(=O)c3csc(-c4c(-c5ccc(F)cc5)ncn4C4CC(F)(F)C4)n3)nc1)C2 [Compound 83, 2-(1-(3,3-difluorocyclobutyl)-4-(4-fluorophenyl)-1H-imidazol-5-yl)-N-(5-(6-methyl-3,6-diazabicyclo[3.1.1]heptan-3-yl)pyridin-2-yl)thiazole-4-carboxamide]
IC50 [1]: 1 to 12 nM | Human Liver Microsome (μM/min/mg) [2]: ++ (10-100 μM/min/mg as ++)

CCN1C2CC1CN(c1ccc(NC(=O)c3csc(-c4c(-c5ccc(F)cc5)ncn4C4CC(F)(F)C4)n3)nc1)C2 [Compound 84, 2-(1-(3,3-difluorocyclobutyl)-4-(4-fluorophenyl)-1H-imidazol-5-yl)-N-(5-(6-ethyl-3,6-diazabicyclo[3.1.1]heptan-3-yl)pyridin-2-yl)thiazole-4-carboxamide]
IC50 [1]: 1 to 12 nM | Human Liver Microsome (μM/min/mg) [2]: ++ (10-100 μM/min/mg as ++)

CC(C)n1cnc(-c2ccc(F)cc2)c1-c1nc(C(=O)Nc2ccc(N3CCP(C)(=O)CC3)cn2)cs1 [Compound 85, 2-(4-(4-fluorophenyl)-1-isopropyl-1H-imidazol-5-yl)-N-(5-(4-methyl-4-oxido-1,4-azaphosphinan-1-yl)pyridin-2-yl)thiazole-4-carboxamide]
IC50 [1]: 1 to 12 nM | Human Liver Microsome (μM/min/mg) [2]: ++ (10-100 μM/min/mg as ++)

CN1C2CC1CN(c1ccc(NC(=O)c3csc(-c4c(-c5ccc(F)cc5)ncn4C4CC(F)(F)C4)n3)c(F)c1)C2 [Compound 86, 2-(1-(3,3-difluorocyclobutyl)-4-(4-fluorophenyl)-1H-imidazol-5-yl)-N-(2-fluoro-4-(6-methyl-3,6-diazabicyclo[3.1.1]heptan-3-yl)phenyl)thiazole-4-carboxamide]
IC50 [1]: 1 to 12 nM | Human Liver Microsome (μM/min/mg) [2]: ++ (10-100 μM/min/mg as ++)

CC(C)c1onc(-c2ccc(F)cc2)c1-c1nc(C(=O)Nc2ccc(C3CN(C)C3)cc2F)cs1 [Compound 88, N-(2-fluoro-4-(1-methylazetidin-3-yl)phenyl)-2-(3-(4-fluorophenyl)-5-isopropylisoxazol-4-yl)thiazole-4-carboxamide]
IC50 [1]: 1 to 12 nM | Human Liver Microsome (μM/min/mg) [2]: ++ (10-100 μM/min/mg as ++)

CC(C)c1onc(-c2ccc(F)cc2)c1-c1nc(C(=O)Nc2ccc(C3CN(C)C3)cn2)cs1 [Compound 90, 2-(3-(4-fluorophenyl)-5-isopropylisoxazol-4-yl)-N-(5-(1-methylazetidin-3-yl)pyridin-2-yl)thiazole-4-carboxamide]
IC50 [1]: 1 to 12 nM | Human Liver Microsome (μM/min/mg) [2]: ++ (10-100 μM/min/mg as ++)

CCN1CC(c2ccc(NC(=O)c3csc(-c4c(-c5ccc(F)cc5)ncn4C(C)C)n3)nc2)C1 [Compound 91, N-(5-(1-ethylazetidin-3-yl)pyridin-2-yl)-2-(4-(4-fluorophenyl)-1-isopropyl-1H-imidazol-5-yl)thiazole-4-carboxamide]
IC50 [1]: 1 to 12 nM | Human Liver Microsome (μM/min/mg) [2]: ++ (10-100 μM/min/mg as ++)

CC(C)c1onc(-c2ccc(F)cc2)c1-c1nc(C(=O)Nc2ccc(C3COC3)cc2F)cs1 [Compound 92, N-(2-fluoro-4-(oxetan-3-yl)phenyl)-2-(3-(4-fluorophenyl)-5-isopropylisoxazol-4-yl)thiazole-4-carboxamide]
IC50 [1]: 12 to 150 nM | Human Liver Microsome (μM/min/mg) [2]: ++ (10-100 μM/min/mg as ++)

CC(C)c1noc(-c2ccc(F)cc2)c1-c1nc(C(=O)Nc2ccc(C3COC3)cn2)cs1 [Compound 93, 2-(5-(4-fluorophenyl)-3-isopropylisoxazol-4-yl)-N-(5-(oxetan-3-yl)pyridin-2-yl)thiazole-4-carboxamide]
IC50 [1]: 1 to 12 nM | Human Liver Microsome (μM/min/mg) [2]: ++ (10-100 μM/min/mg as ++)

CC(C)c1onc(-c2ccc(F)cc2)c1-c1nc(C(=O)Nc2ccc(C3COC3)cn2)cs1 [Compound 94, 2-(3-(4-fluorophenyl)-5-isopropylisoxazol-4-yl)-N-(5-(oxetan-3-yl)pyridin-2-yl)thiazole-4-carboxamide]
IC50 [1]: 1 to 12 nM | Human Liver Microsome (μM/min/mg) [2]: ++ (10-100 μM/min/mg as ++)

CC(C)c1noc(-c2ccc(F)cc2)c1-c1nc(C(=O)Nc2ccc(N3CC4CC(C3)N4C)cn2)cs1 [Compound 95, 2-(5-(4-fluorophenyl)-3-isopropylisoxazol-4-yl)-N-(5-(6-methyl-3,6-diazabicyclo[3.1.1]heptan-3-yl)pyridin-2-yl)thiazole-4-carboxamide]
IC50 [1]: 1 to 12 nM | Human Liver Microsome (μM/min/mg) [2]: ++ (10-100 μM/min/mg as ++)

CC(C)c1onc(-c2ccc(F)cc2)c1-c1nc(C(=O)Nc2ccc(N3CC4CC(C3)N4C)cn2)cs1 [Compound 96, 2-(3-(4-fluorophenyl)-5-isopropylisoxazol-4-yl)-N-(5-(6-methyl-3,6 diazabicyclo[3.1.1]heptan-3-yl)pyridin-2-yl)thiazole-4-carboxamide]
IC50 [1]: 1 to 12 nM | Human Liver Microsome (μM/min/mg) [2]: ++ (10-100 μM/min/mg as ++)

CC(C)c1noc(-c2ccc(F)cc2)c1-c1nc(C(=O)Nc2ccc(N3CC4CC(C3)N4C)cc2F)cs1 [Compound 97, N-(2-fluoro-4-(6-methyl-3,6-diazabicyclo[3.1.1]heptan-3-yl)phenyl)-2-(5-(4-fluorophenyl)-3-isopropylisoxazol-4-yl)thiazole-4-carboxamide]
IC50 [1]: 1 to 12 nM | Human Liver Microsome (μM/min/mg) [2]: ++ (10-100 μM/min/mg as ++)

CC(C)c1onc(-c2ccc(F)cc2)c1-c1nc(C(=O)Nc2ccc(N3CC4CC(C3)N4C)cc2F)cs1 [Compound 98, N-(2-fluoro-4-(6-methyl-3,6-diazabicyclo[3.1.1]heptan-3-yl)phenyl)-2-(3-(4-fluorophenyl)-5-isopropylisoxazol-4-yl)thiazole-4-carboxamide]
IC50 [1]: 1 to 12 nM | Human Liver Microsome (μM/min/mg) [2]: ++ (10-100 μM/min/mg as ++)

CC(C)n1cnc(-c2ccc(F)cc2)c1-c1nc(C(=O)Nc2ccc(N3CCOCC3)cn2)cs1 [Compound 99, 2-(4-(4-fluorophenyl)-1-isopropyl-1H-imidazol-5-yl)-N-(5-morpholinopyridin-2-yl)thiazole-4-carboxamide]
IC50 [1]: 1 to 12 nM | Human Liver Microsome (μM/min/mg) [2]: ++ (10-100 μM/min/mg as ++)

CC(C)n1cnc(-c2ccc(F)cc2)c1-c1nc(C(=O)Nc2ccc(N3CCOCC3)cc2F)cs1 [Compound 100, N-(2-fluoro-4-morpholinophenyl)-2-(4-(4-fluorophenyl)-1-isopropyl-1H-imidazol-5-yl) thiazole-4-carboxamide]
IC50 [1]: 1 to 12 nM | Human Liver Microsome (μM/min/mg) [2]: ++ (10-100 μM/min/mg as ++)

CC(C)n1cnc(-c2ccc(F)cc2)c1-c1nc(C(=O)Nc2ccc(C3CN(C)C3)cn2)co1 [Compound 102, 2-(4-(4-fluorophenyl)-1-isopropyl-1H-imidazol-5-yl)-N-(5-(1-methylazetidin-3-yl)pyridin-2-yl)oxazole-4-carboxamide]
IC50 [1]: 12 to 150 nM | Human Liver Microsome (μM/min/mg) [2]: ++ (10-100 μM/min/mg as ++)

[2H]C([2H])([2H])N1CC(c2ccc(NC(=O)c3csc(-c4c(-c5ccc(F)cc5)ncn4C(C)C)n3)nc2)C1 [Compound 108, 2-[5-(4-fluorophenyl)-3-isopropyl-imidazol-4-yl]-N-[5-[1-(trideuteriomethyl)azetidin-3-yl]-2-pyridyl]thiazole-4-carboxamide]
IC50 [1]: 1 to 12 nM | Human Liver Microsome (μM/min/mg) [2]: ++ (10-100 μM/min/mg as ++)

COCCN1CC(c2ccc(NC(=O)c3csc(-c4c(-c5ccc(F)cc5)ncn4C(C)C)n3)nc2)C1 [Compound 109, 2-(4-(4-fluorophenyl)-1-isopropyl-1H-imidazol-5-yl)-N-(5-(1-(2-methoxyethyl)azetidin-3-yl)pyridin-2-yl)thiazole-4-carboxamide]
IC50 [1]: 1 to 12 nM | Human Liver Microsome (μM/min/mg) [2]: ++ (10-100 μM/min/mg as ++)

[2H]C([2H])([2H])N1CC(c2ccc(NC(=O)c3c[nH]c(-c4c(-c5ccc(F)cc5)ncn4C(C)C)n3)c(F)c2)C1 [Compound 114, 2-[5-(4-fluorophenyl)-3-isopropyl-imidazol-4-yl]-N-[2-fluoro-4-[1-(trideuteriomethyl)azetidin-3-yl]phenyl]-1H-imidazole-4-carboxamide]
IC50 [1]: 1 to 12 nM | Human Liver Microsome (μM/min/mg) [2]: +++ (1-10 μM/min/mg as +++)

[2H]C([2H])([2H])N1CC(c2ccc(NC(=O)c3csc(-c4c(-c5ccc(F)cc5)noc4C(C)C)n3)nc2)C1 [Compound 115, 2-[3-(4-fluorophenyl)-5-isopropyl-isoxazol-4-yl]-N-[5-[1-(trideuteriomethyl)azetidin-3-yl]-2-pyridyl]thiazole-4-carboxamide]
IC50 [1]: 1 to 12 nM | Human Liver Microsome (μM/min/mg) [2]: ++ (10-100 μM/min/mg as ++)

CC(C)n1cnc(-c2ccc(F)cc2)c1-c1nc(C(=O)Nc2ccc(N3CCP(C)(=O)CC3)cc2F)cs1 [Compound 117, N-(2-fluoro-4-(4-methyl-4-oxido-1,4-azaphosphinan-1-yl)phenyl)-2-(4-(4-fluorophenyl)-1-isopropyl-1H-imidazol-5-yl)thiazole-4-carboxamide]
IC50 [1]: 1 to 12 nM | Human Liver Microsome (μM/min/mg) [2]: ++ (10-100 μM/min/mg as ++)

[2H]C([2H])([2H])N1CC(c2ccc(NC(=O)c3nc(-c4c(-c5ccc(F)cc5)ncn4C4CCC4)cs3)nc2)C1 [Compound 121, 4-(1-cyclobutyl-4-(4-fluorophenyl)-1H-imidazol-5-yl)-N-(5-(1-(trideuteriomethyl)azetidin-3-yl)pyridin-2-yl)thiazole-2-carboxamide]
IC50 [1]: 1 to 12 nM | Human Liver Microsome (μM/min/mg) [2]: ++ (10-100 μM/min/mg as ++)

[2H]C([2H])([2H])N1CC(c2ccc(NC(=O)c3nc(-c4c(-c5ccc(F)cc5)ncn4C4CCC4)cs3)c(F)c2)C1 [Compound 122, 4-[3-cyclobutyl-5-(4-fluorophenyl)imidazol-4-yl]-N-[2-fluoro-4-[1-(trideuteriomethyl)azetidin-3-yl]phenyl]thiazole-2-carboxamide]
IC50 [1]: 1 to 12 nM | Human Liver Microsome (μM/min/mg) [2]: ++ (10-100 μM/min/mg as ++)

[2H]C([2H])([2H])N1CC(c2ccc(NC(=O)c3csc(-c4c(-c5ccc(F)c(Cl)c5)ncn4C(C)C)n3)nc2)C1 [Compound 123, 2-[5-(3-chloro-4-fluoro-phenyl)-3-isopropyl-imidazol-4-yl]-N-[5-[1-(trideuteriomethyl)azetidin-3-yl]-2-pyridyl]thiazole-4-carboxamide]
IC50 [1]: 1 to 12 nM | Human Liver Microsome (μM/min/mg) [2]: ++ (10-100 μM/min/mg as ++)

From US20240336611A1 (Insilico Medicine IP Limited, priority 2021, published 2024)
